# Test results taken from article PMC7811517, “Human neuronal signaling and communication assays to assess functional neurotoxicity” (Archives of Toxicology, 2020).
# Values joined by “and” are separate entries in the source; they are usually repeats but may differ in a detail not shown here. Equal values may be shown once. “Also recorded” adds a separate entry of the source. Read-outs that look alike come from different tables or passages of the source.
# Experiments:
# P2X receptors [1] = test: Ca2+-imaging of LUHMES neurons, P2X receptor antagonists against ATP or α,β-meATP response; assay type: cell-based, human; settings: for pIC50 on the response triggered by ATP: 1 µM ATP (~EC75)
# Protocol: (§1) The signals of individual cells could not be captured. […] The total recording never exceeded 8 min.
# (§2) (Ritz et al. [2015]). […].
# P2X receptors [2] = test: Ca2+-imaging of LUHMES neurons, P2 receptor agonist responses; assay type: cell-based, human; settings: for pEC50 in Ca2+-imaging: LUHMES neurons, agonist concentration-response
# Protocol: as §1
# (Ritz et al. [2015]). The logarithm of the half-maximal effective concentration (logEC50) between 0 and the upper limit (d), which was set to 1, is represented by ẽ, x denotes the concentration and b stands for the slope parameter (Ritz et al. [2015]).
# LUHMES neurons [3] = assay type: cell-based, human
# Protocol: as §1
# [4] = molecular target: dopamine transporter (DAT) (Homo sapiens, UniProt Q01959); assay type: cell-based
# Protocol: LUHMES cells were differentiated for 6 days in a 24-well format and then treated with the indicated DAT inhibitors. […] After 10 min at 37 °C, the supernatant was removed and cells were washed with PBS. Then lysis buffer was added (PBS containing 0.2% Triton X-100). The amount of radioactive label taken up by the cells as well as the residual activity in the cell supernatant (plus washing buffer) was measured on a scintillation counter.
# LUHMES neurons [5] = test: Manual patch clamp recordings of LUHMES neurons; assay type: cell-based, human
# Text: Manual patch clamp was executed with an EPC 10 USB patch clamp amplifier and PatchMaster Software (version 2 × 90.5; HEKA Elektronik, Lambrecht, Germany). […] Intracellular solution contained [mM]: 107 K-gluconate, 10 KCl, 1 MgCl2, 10 HEPES, 5 EGTA, 4 Na2ATP and 0.2 NaGTP, pH 7.20. Recordings were obtained at room temperature. The cells were kept at a holding potential of − 70 mV. In voltage clamp mode NaV and voltage-gated potassium (KV) channels were activated for 300 ms by voltage pulses ranging from − 70 to + 70 mV in + 10 mV steps after a hyperpolarizing step to − 120 mV for 200 ms. To investigate the firing behavior, cells were stimulated in current clamp mode by hyper- and depolarizing current pulses of 300 ms duration. The pulse protocol was executed at 0.2 Hz. For agonist tests in current clamp and voltage clamp mode, cells were kept at a holding potential of − 70 mV and the compounds were applied for 5 s.
# The raw data of the manual patch clamp recordings were analyzed in scripts written in R. For leak subtraction, the P/4 algorithms of PatchMaster and QPatch Software were used in the voltage clamp recordings for manual and automated patch clamp experiments, respectively.
# NaV channels [6] = test: Automated patch clamp recordings (QPatch) of NaV channel currents in LUHMES neurons; assay type: cell-based, human
# NaV1.1 = settings: ref McCormack et al. [2013]; cited from earlier work
# NaV1.3 = settings: ref McCormack et al. [2013]; cited from earlier work
# NaV1.2 = settings: ref McCormack et al. [2013]; cited from earlier work
# NaV1.6 = settings: ref McCormack et al. [2013]; cited from earlier work
# NaV1.7 = settings: ref McCormack et al. [2013]; cited from earlier work
# NaV channels [7] = test: Ca2+-imaging of LUHMES neurons, NaV channel toxicants; assay type: cell-based, human
# Protocol: as §1, §2
# rat hippocampal neurons = settings: cited from earlier work
# human P2X3 receptors = settings: ref Garcia-Guzman et al. [1997]; cited from earlier work
# mice = settings: mouse, in vivo; cited from earlier work
# [8] = 1 µM DA and 0.3 µM AMP, NNC 55–0396 30 µM
# Sequence of dopamine transporter (DAT) (Q01959 whole entry): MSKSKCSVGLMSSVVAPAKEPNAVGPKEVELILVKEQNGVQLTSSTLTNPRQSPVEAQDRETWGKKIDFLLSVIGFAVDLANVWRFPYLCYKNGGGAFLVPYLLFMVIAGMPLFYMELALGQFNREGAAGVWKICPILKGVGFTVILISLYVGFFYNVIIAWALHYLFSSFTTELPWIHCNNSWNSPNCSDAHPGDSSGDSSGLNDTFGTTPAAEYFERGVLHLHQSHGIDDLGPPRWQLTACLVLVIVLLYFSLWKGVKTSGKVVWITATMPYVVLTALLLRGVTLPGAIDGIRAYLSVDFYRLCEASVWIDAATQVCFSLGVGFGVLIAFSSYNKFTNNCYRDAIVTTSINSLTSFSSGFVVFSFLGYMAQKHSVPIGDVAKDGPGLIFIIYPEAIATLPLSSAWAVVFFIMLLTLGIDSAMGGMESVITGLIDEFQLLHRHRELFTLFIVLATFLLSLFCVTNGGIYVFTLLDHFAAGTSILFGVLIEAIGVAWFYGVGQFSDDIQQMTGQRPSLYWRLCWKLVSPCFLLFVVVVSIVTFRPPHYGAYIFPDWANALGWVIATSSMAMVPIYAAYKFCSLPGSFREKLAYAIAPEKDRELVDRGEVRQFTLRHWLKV
compound,measurement,setting,value
O=C(O)c1cc(C(=O)O)c(C(=O)N(Cc2cccc(Oc3ccccc3)c2)[C@H]2CCCc3ccccc32)cc1C(=O)O [A-317491],block of the response of ATP,P2X receptors [1],up to 40%
same,effect on ATP signals,P2X receptors [1],only a weak partial effect
same,"effect on the response to α,β-meATP",P2X receptors [1],potently and completely blocked
same,"pIC50 on the response triggered by α,β-meATP",P2X receptors [1],6.31 ± 0.05
Nc1ncnc2c1ncn2[C@@H]1O[C@H](COP(=O)(O)OP(=O)(O)OP(=O)(O)O)[C@@H](OC(=O)c2ccc(C(=O)c3ccccc3)cc2)[C@H]1O [BzATP],pEC50 in Ca2+-imaging,P2X receptors [2],7.76 ± 0.11
"CC(N)Cc1ccccc1 (centres unmarked) [AMP, amphetamine]",main oscillation frequency,"LUHMES neurons [3]; 1 µM DA (n = 6), 0.3 µM AMP (n = 10), FFT analysis",0.234 ± 0.007 Hz and 0.2–0.23 Hz
same,recordings with oscillations of the Ca2+-imaging signal,"LUHMES neurons [3]; 1 µM DA (n = 125), 0.3 µM AMP (n = 50)",94.0%
same,effect on uptake of [3H]DA,[4],inhibited; also recorded: significantly reduced
"Nc1ncnc2c1ncn2[C@@H]1O[C@H](COP(=O)(O)CP(=O)(O)OP(=O)(O)O)[C@@H](O)[C@H]1O [α,β-meATP]",pEC50 in Ca2+-imaging,P2X receptors [2],7.52 ± 0.03 and 7.5
same,"pEC50, amplitude normalized to K+ amplitude","P2X receptors [2]; normalized to 30 mM K+ application, 5 differentiations",7.58 ± 0.04
COC(=O)C1=C(C)NC(C)=C(C(=O)OC)C1c1ccccc1[N+](=O)[O-] [nifedipine],"signal amplitude compared to control, response to AMP",LUHMES neurons [3],51% and 51.4 ± 0.03%
same,"signal amplitude compared to control, response to DA",LUHMES neurons [3],70% and 70.2 ± 0.05%
"Nc1ncnc2c1ncn2[C@@H]1O[C@H](COP(=O)(O)OP(=O)(O)OP(=O)(O)O)[C@H]2OC3(O[C@H]21)C([N+](=O)[O-])=CC(=[N+]([O-])[O-])C=C3[N+](=O)[O-] (some centres unmarked) [TNP-ATP, 2′,3′-O-(2,4,6-trinitrophenyl) adenosine 5′-triphosphate]","pIC50 on the response triggered by α,β-meATP","P2X receptors [1]; 0.1 µM α,β-meATP (~EC75)",7.5
same,pIC50 on the response triggered by ATP,P2X receptors [1],6.1 and 6.05 ± 0.06
"Nc1ncnc2c1ncn2[C@@H]1O[C@H](COP(=O)(O)OP(=O)(O)OP(=O)(O)O)[C@@H](O)[C@H]1O [ATP, Adenosine 5'-triphosphate]",pEC50 in Ca2+-imaging,P2X receptors [2],7.35 ± 0.08
same,half-life of the fast decrease of the fluorescence signal,P2X receptors [2]; at 100 µM ATP,~ 8 s
same,response to agonist application,"LUHMES neurons [5]; 100 µM ATP for 5 s, current clamp",triggered action potential firing
O=C(Nc1ccc(S(=O)(=O)Nc2nccs2)cc1)C(c1ccccc1)c1ccccc1 [ICA-121431],"pIC50, NaV current with 50% of channels inactivated",NaV channels [6]; prepulse to −55 mV,6.33 ± 0.10 and 6.3
same,IC50,NaV1.1,23 nM
same,IC50,NaV1.3,13 nM
same,IC50,NaV1.2,240 nM
same,IC50,NaV1.6,13000 nM
same,IC50,NaV1.7,10000 nM
COC(=O)[C@H]1[C@@H](OC(=O)c2ccccc2)C[C@@H]2CC[C@H]1N2C [cocaine],effect on uptake of [3H]DA,[4],inhibited; also recorded: significantly reduced
CN1Cc2c(N)cccc2C(c2ccccc2)C1 (centres unmarked) [nomifensine],effect on oscillations induced by AMP and DA,LUHMES neurons [3],blocked
microcystin-LF,effect alone in Ca2+-imaging,NaV channels [7],no significate effect; also recorded: did not show any effects
same,effect on the response to 3 µM VTD,NaV channels [7],no significate effect; also recorded: did not show any effects
"CC(C)[C@H]1c2ccc(F)cc2CC[C@@]1(CCN(C)CCCc1nc2ccccc2[nH]1)OC(=O)C1CC1.Cl.Cl [NNC 55–0396, (1S,2S)-2-(2-(N-[(3-benzimidazol-2-yl)propyl]-N-methylamino)ethyl)-6-fluoro-1,2,3,4-tetrahydro-1-isopropyl-2-naphtyl cyclopropanecarboxylate dihydrochloride]","signal amplitude compared to control, response to AMP",LUHMES neurons [3],2.1 ± 0.02%
same,"signal amplitude compared to control, response to DA",LUHMES neurons [3],3.0 ± 0.02%
same,"inhibition of amplitude, DA/AMP induced oscillations",LUHMES neurons [3]; [8],> 95%
same,"signal amplitude compared to control, DA/AMP induced oscillations",LUHMES neurons [3]; [8],2–3%
"COc1ccc(C(=O)O[C@H]2CC[C@@]3(C)[C@@H]4CC[C@H]5[C@]6(O)C[C@H](O)[C@@]7(O)[C@@H](CN8C[C@@H](C)CC[C@H]8[C@@]7(C)O)[C@]6(O)C[C@@]53O[C@]24O)cc1OC [VTD, veratridine]","pEC50, rise of [Ca2+]i",NaV channels [7]; LUHMES neurons,5.4 and 5.38 ± 0.03
same,effect on action potential duration,"LUHMES neurons [5]; 1 µM VTD, current clamp, n = 4",reversibly increased the action potential duration
"NC1=N[C@H](O)[C@H]2[C@H]3O[C@]4(O)O[C@@H]([C@@H](O)[C@@]2(N1)[C@@H]4O)[C@]3(O)CO [TTX, tetrodotoxin]",pIC50 on the response triggered by VTD,NaV channels [7],7.9 and 7.93 ± 0.06
same,"pIC50, NaV current (pulse not specified)",NaV channels [6],~ 7.2
same,"pIC50, NaV current, 1st pulse",NaV channels [6],7.23 ± 0.05
same,"pIC50, NaV current, 10th pulse",NaV channels [6],7.26 ± 0.05
same,effect on rapid transient inward currents,LUHMES neurons [5],blocked
same,"signal amplitude compared to control, response to AMP",LUHMES neurons [3],21% and 20.5 ± 0.02%
same,"signal amplitude compared to control, response to DA",LUHMES neurons [3],69% and 68.6 ± 0.06%
"CCN(CC)CC(=O)Nc1c(C)cccc1C [Lidocaine, lidocaine]","pIC50, NaV current, 1st pulse",NaV channels [6],3.03 ± 0.07
same,"pIC50, NaV current, 10th pulse",NaV channels [6],3.57 ± 0.06
same,pIC50 in rat hippocampal neurons,rat hippocampal neurons,~ 3.4
"NCCc1ccc(O)c(O)c1 [DA, dopamine]",main oscillation frequency,LUHMES neurons [3],0.201 ± 0.002 Hz and 0.2–0.23 Hz
same,recordings with oscillations of the Ca2+-imaging signal,LUHMES neurons [3],61.6% and 62%
Cc1ccc(C(=O)Nc2ccc(S(=O)(=O)O)c3cc(S(=O)(=O)O)cc(S(=O)(=O)O)c23)cc1NC(=O)c1cccc(NC(=O)Nc2cccc(C(=O)Nc3cc(C(=O)Nc4ccc(S(=O)(=O)O)c5cc(S(=O)(=O)O)cc(S(=O)(=O)O)c45)ccc3C)c2)c1 [suramin],"pIC50 on the response triggered by α,β-meATP","P2X receptors [1]; 0.1 µM α,β-meATP (~EC75)",4.51 ± 0.03 and 4.5
same,pIC50 on the response triggered by ATP,P2X receptors [1],4.09 ± 0.03 and 4.1
same,pIC50 for human P2X3 receptors,human P2X3 receptors,approximately 4.8
"C[C@@H]1C[C@@H]2O[C@@H]3[C@@H](C)[C@H](O)[C@@H]4O[C@@]5(CCCO5)[C@@H](C)[C@H](C)[C@H]4O[C@H]3C[C@H]2O[C@H]2C[C@H]3O[C@H]4C/C=C\C[C@H]5O[C@H]6C=C[C@H]7O[C@H]8[C@H](O)[C@H]9O[C@@H](/C=C/[C@H](O)CO)C=CC[C@@H]9O[C@@H]8C[C@@H]7O[C@@H]6C=C[C@@H]5O[C@@H]4C[C@@H](O)[C@]3(C)O[C@@H]2C1 [pCTX-2, pacific ciguatoxin-2]",amplitude of the evoked response,NaV channels [7],1779 ± 50 AU
same,effect compared to control,NaV channels [7],no effect
same,effect on [Ca2+]i / Ca2+-imaging signal,NaV channels [7],induced an increase of the baseline and oscillations; also recorded: increased [Ca^2+]i
same,effect on the amplitude induced by 3 µM VTD,NaV channels [7],significantly reduced
same,acute toxicity (mice),mice,2.3 µg/kg
